Experimental data from BindingDB's records for doi:10.1016/j.bmcl.2004.04.020 (Texas Tech University Health Sciences Center, 2004).
pKi: −log10 of the molar value.

Tests used:
[1] = Inhibition of [3H]choline brain uptake through choline transporter was determined in situ brain perfusion studies in Male Fischer-344 rats
[2] = as above; remark: listed apart in the source

Row | SMILES | pKi [1] | pKi [2]
1 | CCC[N+](C)(C)CCO [(2-Hydroxy-ethyl)-dimethyl-propyl-ammonium] | 3.72 | –
2 | CCCCCCCC[N+](C)(C)CCO [(2-Hydroxy-ethyl)-dimethyl-octyl-ammonium] | – | 5.68
3 | C[N+](C)(C)CCCO | 3.79 | –
4 | CCCC[N+](C)(C)CCO [Butyl-(2-hydroxy-ethyl)-dimethyl-ammonium] | 4.40 | –
5 | CC[N+](C)(C)C [Ethyl-trimethyl-ammonium] | 2.33 | –
6 | CCCCCCCCN1CCCCC1 [1-Octyl-piperidine] | 4.49 | –
7 | CC(=O)C1=CCC(CCc2ccccc2)CC1 (configuration not stated) [1-(4-Phenethyl-cyclohex-1-enyl)-ethanone] | 3.31 | –
8 | OCCCN1CCN(Cc2cccnc2)CC1 [3-(4-Pyridin-3-ylmethyl-piperazin-1-yl)-propan-1-ol] | < 2.00 | –
9 | CSCCO [2-Methylsulfanyl-ethanol] | < 2.00 | –
10 | C[N+](C)(C)CCCCO | < 2.00 | –
11 | C[N+](C)(CCO)c1ccc(F)cc1 [(4-Fluoro-phenyl)-(2-hydroxy-ethyl)-dimethyl-ammonium] | 3.13 | –
12 | CN(C)C1CCCCC1O (configuration not stated) [2-Dimethylamino-cyclohexanol] | < 2.00 | –
13 | CC(O)C[N+](C)(C)C (stereo not drawn) [beta-methylcholine] | 3.70 | –
14 | CC[N+](C)(C)CCO [Ethyl-(2-hydroxy-ethyl)-dimethyl-ammonium] | 4.03 | –
15 | CC[N+](CC)(CC)CCO | 2.72 | –
16 | CCN1CC=C(C(C)=O)CC1 [1-(1-Ethyl-1,2,3,6-tetrahydro-pyridin-4-yl)-ethanone] | < 2.00 | –
17 | C[N+](C)(CCO)c1ccccc1 [(2-Hydroxy-ethyl)-dimethyl-phenyl-ammonium] | < 2.00 | –
